One data set addresses T1, OCT2 (Homo sapiens, UniProt O15244).
T1 sequence (O15244 1-555): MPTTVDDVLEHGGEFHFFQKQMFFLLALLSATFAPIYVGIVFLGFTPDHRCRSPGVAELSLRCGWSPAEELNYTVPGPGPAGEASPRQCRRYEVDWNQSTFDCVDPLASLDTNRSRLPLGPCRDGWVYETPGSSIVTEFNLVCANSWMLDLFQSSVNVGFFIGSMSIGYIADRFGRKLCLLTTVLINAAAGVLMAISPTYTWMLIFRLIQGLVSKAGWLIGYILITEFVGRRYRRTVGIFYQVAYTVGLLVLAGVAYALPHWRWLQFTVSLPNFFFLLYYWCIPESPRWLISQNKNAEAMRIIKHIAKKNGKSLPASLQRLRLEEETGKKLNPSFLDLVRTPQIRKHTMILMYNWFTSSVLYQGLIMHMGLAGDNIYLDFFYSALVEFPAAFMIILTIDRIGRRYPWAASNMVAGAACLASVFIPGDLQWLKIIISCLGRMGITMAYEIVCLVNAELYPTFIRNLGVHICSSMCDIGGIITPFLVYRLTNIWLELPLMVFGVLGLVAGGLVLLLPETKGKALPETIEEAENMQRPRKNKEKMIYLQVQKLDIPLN
The data set is described as follows: Inhibition of model substrate uptake in OCT2-overexpressing HEK293 cells. The method, then:
(§1) All experiments were carried out in transporter-overexpressing HEK293 cells. OCT1-, OCT2-, NET-, DAT-, and SERT-overexpressing cells as well as the empty-vector transfected control cell line were generated as described earlier,[26]−[28] whereas the OCT3-overexpressing HEK293 cells were generous gift of from Drs. Koepsell and Gorbulev (University of Würzburg, Germany). All cells were cultivated in Dulbecco’s modified Eagle’s medium (DMEM) supplemented with 10% (v/v) FCS, penicillin (100 U/mL), and streptomycin (100 μg/mL) and kept in culture for no longer than 30 passages.
(§2) As for the transport experiments, 300,000 HEK293 cells were plated in poly-D-lysine-coated 24-well plates 2 days ahead of the experiment. On every plate, two wells of empty vector (EV)-transfected cells were used as a control to account for the passive influx of the model substrate, and two wells of transporter-overexpressing cells were used to determine the noninhibited uptake of the model substrate. Cells were initially washed once with 37 °C HBSS+ and then incubated with 2 μM model substrate (0.2 μM for MPP^+ uptake by MATs) with and without 20 μM inhibitor for 5 min. For concentration-dependent inhibition experiments, the cells were incubated with increasing inhibitor concentrations. The incubation was terminated by aspiration of the buffer before cells were washed twice with ice-cold HBSS+ and lysed in 80% acetonitrile. Cell lysates were transferred into a black 96-well plate for the fluorescence measurement of ASP^+ or used for sample preparation for LC–MS/MS analysis. […] Fluorescence quantification was performed in technical duplicates.
(§3) Transporter-mediated net uptake was calculated as the difference between uptake in transporter-overexpressing cells and that in the empty-vector-transfected control. […] Vmax is the maximum transport velocity, while Km is defined as the substance concentration that is required to reach half of vmax. The ratio of vmax over Km is termed intrinsic clearance Clint. For inhibition experiments, the transport activity was calculated by using the following equation [drawing 1]
(§4) SubstrateEV refers to the passive uptake of model substrates into the control cells and substratenoninhibited is the uptake in transporter-overexpressing cells without the presence of any inhibitor. The percent inhibition values are then calculated as described in the following [drawing 2]
(§5) For concentration inhibition experiments, the transporter activity was plotted against the log10 of inhibitor concentrations, and the data were fitted by the following equation to determine IC50 values [drawing 3]
(§6) Y refers to the transporter activity, whereas Ymax is the maximum and Ymin is the minimal transporter activity. X is the log10 of inhibitor concentrations, IC50 is the half-maximal inhibitory concentration, and hill slope is the slope factor.

For a further data set, the target named is T2, OCT1 (Homo sapiens, UniProt O15245).
T2 sequence (O15245 1-554): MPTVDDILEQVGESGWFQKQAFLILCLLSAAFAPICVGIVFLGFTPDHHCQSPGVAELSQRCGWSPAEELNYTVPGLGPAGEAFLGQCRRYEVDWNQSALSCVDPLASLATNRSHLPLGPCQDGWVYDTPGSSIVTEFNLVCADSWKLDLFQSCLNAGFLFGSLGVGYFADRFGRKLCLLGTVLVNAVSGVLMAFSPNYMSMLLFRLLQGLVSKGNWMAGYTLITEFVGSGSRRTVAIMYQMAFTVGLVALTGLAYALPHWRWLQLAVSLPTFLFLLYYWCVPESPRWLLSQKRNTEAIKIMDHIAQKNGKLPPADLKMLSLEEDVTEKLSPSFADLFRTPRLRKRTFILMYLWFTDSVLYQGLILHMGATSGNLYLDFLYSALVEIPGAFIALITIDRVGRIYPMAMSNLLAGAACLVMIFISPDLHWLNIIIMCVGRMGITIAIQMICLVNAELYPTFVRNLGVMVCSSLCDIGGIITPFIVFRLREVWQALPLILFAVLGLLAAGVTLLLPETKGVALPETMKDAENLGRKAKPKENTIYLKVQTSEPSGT
The data set is described as follows: Inhibition of model substrate uptake in OCT1-overexpressing HEK293 cells. The format is cell-based. More on the design: expressed in transfected cells; host or cells: HEK293. Particulars: for Sumatriptan inhibition [%]: pH 7.4. The method, then:
Koepsell and Gorbulev (University of Würzburg, Germany).
Fluorescence quantification was performed in technical duplicates.

The target in another data set is T3, OCT3 (Homo sapiens, UniProt O75751).
T3 construct: expressed in transfected cells; host or cells: HEK293
T3 sequence (O75751 1-556): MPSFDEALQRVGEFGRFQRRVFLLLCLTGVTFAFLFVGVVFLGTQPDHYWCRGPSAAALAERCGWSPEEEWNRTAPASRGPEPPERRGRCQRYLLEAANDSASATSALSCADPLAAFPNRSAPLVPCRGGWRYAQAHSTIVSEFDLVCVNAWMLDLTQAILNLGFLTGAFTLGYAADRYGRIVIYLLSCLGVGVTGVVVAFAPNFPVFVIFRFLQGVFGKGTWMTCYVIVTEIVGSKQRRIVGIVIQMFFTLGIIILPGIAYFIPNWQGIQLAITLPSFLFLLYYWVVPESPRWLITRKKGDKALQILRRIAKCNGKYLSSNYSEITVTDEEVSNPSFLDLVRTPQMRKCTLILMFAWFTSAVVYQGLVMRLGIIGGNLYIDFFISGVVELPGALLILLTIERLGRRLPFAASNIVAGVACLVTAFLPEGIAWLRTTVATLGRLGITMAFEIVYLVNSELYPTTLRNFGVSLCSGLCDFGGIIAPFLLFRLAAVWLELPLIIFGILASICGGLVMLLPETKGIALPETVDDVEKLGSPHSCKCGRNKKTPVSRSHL
Description: Inhibition of model substrate uptake in OCT3-overexpressing HEK293 cells. In kind it is cell-based. The method, then: as §1, §2, §3, §4, §5, §6

Where [1] appears, read: OCT2, 20 μM inhibitor, 2 μM (S,S)-ethambutol, 5 min.
Setting [2] is: HEK293, 5 min, read-out: (S)-Zolmitriptan inhibition [%], OCT3, 20 μM inhibitor, 2 μM (S)-zolmitriptan, 5 min.
Setting [3] is: HEK293, 5 min, read-out: (S,S)-Ethambutol inhibition [%], OCT3, 20 μM inhibitor, 2 μM (S,S)-ethambutol, 5 min.
The mark [4] stands for this setting: human, OCT2-overexpressing HEK293 cells, pH 7.4, probe (S,S)-ethambutol (2 μM), (S,S)-Ethambutol inhibition [%], OCT2, 20 μM inhibitor, 2 μM (S,S)-ethambutol, 5 min.
[5] abbreviates: human, OCT2-overexpressing HEK293 cells, pH 7.4, probe ASP+ (2 μM), ASP+ inhibition [%], OCT2, 20 μM inhibitor, 2 μM ASP+, 5 min.
[6] abbreviates: human, OCT2-overexpressing HEK293 cells, pH 7.4, probe N-ethyllidocaine (2 μM), N-Ethyllidocaine inhibition [%], OCT2, 20 μM inhibitor, 2 μM N-ethyllidocaine, 5 min.
Setting [7] is: human, OCT1-overexpressing HEK293 cells, pH 7.4, probe (S,S)-ethambutol (2 μM), (S,S)-Ethambutol inhibition [%], OCT1, 20 μM inhibitor, 2 μM (S,S)-ethambutol, 5 min.
Setting [8] is: human, OCT1-overexpressing HEK293 cells, pH 7.4, probe ASP+ (2 μM), OCT1, 20 μM inhibitor, 2 μM ASP+, 5 min, mean of three experiments, read-out: ASP+ inhibition [%].
The mark [9] stands for this setting: human, OCT1-overexpressing HEK293 cells, pH 7.4, probe sumatriptan (2 μM), OCT1, 20 μM inhibitor, 2 μM sumatriptan, 5 min, read-out: Sumatriptan inhibition [%].
Setting [10] is: HEK293, OCT3, 20 μM inhibitor, 2 μM ASP+, 5 min, read-out: ASP+ inhibition [%].
The mark [11] stands for this setting: OCT1, 20 μM inhibitor, 2 μM ASP+, 5 min, mean of three experiments.

The values below come from publication PMC10698726 (Molecular Pharmaceutics, 2023).

SMILES strings stand for the structures. pIC50: −log10 of the molar value. Read-outs that look alike come from different tables or passages of the source.

For `O=C(OC1C[N+]2(CCCOc3ccccc3)CCC1CC2)C(O)(c1cccs1)c1cccs1` [(R)-Aclidinium], on OCT2 (setting [1]), the “(S,S)-Ethambutol inhibition [%]” value is -0.8%. Further, the inhibition (commonly the relative decrease from the control value, in per cent) at 5 min, 20 μM on OCT2 (human, pH 7.4, ASP+ inhibition [%], OCT2, 20 μM inhibitor, 2 μM ASP+, 5 min) was 108%; on OCT2 (human, pH 7.4, N-Ethyllidocaine inhibition [%], OCT2, 20 μM inhibitor, 2 μM N-ethyllidocaine, 5 min) it was 69.1%; on OCT1 (human, pH 7.4, (S,S)-Ethambutol inhibition [%], OCT1, 20 μM inhibitor, 2 μM (S,S)-ethambutol, 5 min) it was 98.8%; at OCT1 (human, pH 7.4, OCT1, 20 μM inhibitor, 2 μM ASP+, 5 min, mean of three experiments, read-out: ASP+ inhibition [%]) it was 71.6%; at OCT1 (human, pH 7.4, OCT1, 20 μM inhibitor, 2 μM sumatriptan, 5 min, read-out: Sumatriptan inhibition [%]), 93.6%. For the same molecule, the inhibition at 20 µM is 43.3% on OCT3 (setting [2]); 62.8% at OCT3 (setting [3]); 37.1% at OCT3 (HEK293, read-out: ASP+ inhibition [%], OCT3, 20 μM inhibitor, 2 μM ASP+, 5 min).
With `CCCCN1CCCC[C@@H]1C(=O)Nc1c(C)cccc1C` [(R)-Bupivacaine], it took 21.4 µM to reach half-maximal inhibition on OCT2 (IC50 [μM], OCT2, Table 1) (IC50). Also, the inhibition at 5 min, 20 μM was found to be 56.3% on OCT2 (setting [4]); 59.5% against OCT2 (setting [5]); 64.4% against OCT2 (setting [6]); 63.8% against OCT1 (setting [7]); 32.8% on OCT1 (setting [8]); 59.2% at OCT1 (setting [9]). In addition, the pIC50 – broadly, −log10 of the IC50, conventionally taken in molar units – on OCT1 (OCT1, Table 1, read-out: IC50) is 4.99. The results for the inhibition at 20 µM on OCT3 (setting [2]), at OCT3 (setting [3]) and at OCT3 (setting [10]) were 51.8%, 50.3% and 31.4%, respectively.
Turning to `COc1ccccc1OCCNC[C@@H](O)COc1cccc2[nH]c3ccccc3c12` [(R)-Carvedilol], the inhibition at 5 min, 20 μM against OCT2 (setting [4]) came to 13.5%; at OCT2 (setting [5]) it was 99.6%; against OCT2 (setting [6]), 58.2%; at OCT1 (setting [7]) it was 100%; at OCT1 (setting [8]) it was 76.9%; at OCT1 (setting [9]) it was 96.6%. Also, the inhibition at 20 µM on OCT3 (setting [2]) was 37.9%; on OCT3 (setting [3]), 48.6%; on OCT3 (setting [10]) it was 23.5%.
As to `N[C@@H]1CONC1=O` [(R)-Cycloserine], the “(S,S)-Ethambutol inhibition [%]” value is given as 5.0% at OCT2 (setting [1]) and 17.6% at OCT1 (OCT1, 20 μM inhibitor, 2 μM (S,S)-ethambutol, 5 min). In addition, the figures for the inhibition at 5 min, 20 μM against OCT2 (setting [5]), at OCT2 (setting [6]) and on OCT1 (setting [9]) were 12.3%, 13.6% and 28%, respectively. Also, the “ASP+ inhibition [%]” value on OCT1 (setting [11]) is -0.8%. Besides, the inhibition at 20 µM on OCT3 (setting [3]) was found to be 7.4%; on OCT3 (setting [10]), 17.8%. The “(S)-Zolmitriptan inhibition [%]” value at OCT3 (OCT3, 20 μM inhibitor, 2 μM (S)-zolmitriptan, 5 min) is -0.4%.
`C#CCN(C)[C@H](C)Cc1ccccc1` [(R)-Deprenyl]: on OCT2 (IC50, OCT2, Table S5, 2 μM ASP+ as model substrate, 5 min), the pIC50 was 5.62. The “ASP+ inhibition [%]” value at OCT2 (OCT2, 20 μM inhibitor, 2 μM ASP+, 5 min) is 101.0%; at OCT1 (setting [11]), 21.6%. For the same molecule, the “N-Ethyllidocaine inhibition [%]” value on OCT2 (OCT2, 20 μM inhibitor, 2 μM N-ethyllidocaine, 5 min) is listed as 52.3%. In addition, the “Sumatriptan inhibition [%]” value on OCT1 (human) worked out at 62.3%. Also, the inhibition at 20 µM at OCT3 (HEK293, 5 min, read-out: (S)-Zolmitriptan inhibition [%]) worked out at 18%; at OCT3 (HEK293, 5 min, read-out: (S,S)-Ethambutol inhibition [%]) it was 24.2%; at OCT3 (setting [10]), 12.6%.
In the case of `CCN[C@@H](C)Cc1cccc(C(F)(F)F)c1` [(S)-Fenfluramine], the “ASP+ inhibition [%]” value at OCT1 (setting [11]) was determined as 41.9%. On OCT1 (human), the “Sumatriptan inhibition [%]” value was determined as 87.1%. On OCT3, the “(S)-Zolmitriptan inhibition [%]” value worked out at 51.9% and the “(S,S)-Ethambutol inhibition [%]” value worked out at 40.7%. For the same molecule, the “ASP+ inhibition [%]” value on OCT3 (OCT3, 20 μM inhibitor, 2 μM ASP+, 5 min) is 12.7%.
Regarding `CCCN[C@H]1CCc2nc(N)sc2C1` [Pramipexole], the selectivity ratio at 5 min is 4 on OCT2 (human, OCT2-overexpressing HEK293 cells, pH 7.4) and 1.6 on OCT1 (human, OCT1-overexpressing HEK293 cells, pH 7.4, OCT1, ratio of the IC50 values of the two enantiomers of the drug, read-out: x-fold Stereoselectivity).
